What is called IC50 is the concentration at which inhibition is half-maximal.

The values that follow come from patent EP0181109B1, “N6-benzopyrano- and benzothiopyrano-adenosines” (WARNER-LAMBERT COMPANY, priority 1984, dated 1986).

Molecules are shown by their SMILES.

One assay deals with T1, adenosine A1 receptor (Rattus norvegicus, UniProt P25099).
T1 construct: Whole brain minus cerebellum and brainstem from male Long Evans rats (150-200 g) was homogenized; from tissue; host or cells: rat whole brain minus cerebellum and brainstem (membrane homogenate)
T1 sequence (P25099 1-326): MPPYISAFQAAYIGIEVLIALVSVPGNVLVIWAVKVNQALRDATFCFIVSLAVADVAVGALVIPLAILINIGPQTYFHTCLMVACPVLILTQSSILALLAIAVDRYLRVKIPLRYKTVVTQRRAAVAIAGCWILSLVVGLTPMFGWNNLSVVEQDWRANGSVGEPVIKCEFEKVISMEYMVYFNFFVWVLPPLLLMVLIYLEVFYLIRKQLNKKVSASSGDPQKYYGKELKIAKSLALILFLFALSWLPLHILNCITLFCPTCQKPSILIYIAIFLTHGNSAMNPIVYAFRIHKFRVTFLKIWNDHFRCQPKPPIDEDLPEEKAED
The assay is described as follows: Adenosine Receptor Binding - A1 Receptor Affinity (RBA 1), [3H]-CHA displacement. The settings on record: rat whole brain membranes, 1.0 nM [3H]-CHA, one hour at 25°C. Here is the method: Whole brain minus cerebellum and brainstem from male Long Evans rats (150-200 g) was homogenized in 30 volumes of ice-cold 0.05 M Tris-HCI buffer pH 7.7 using a Brinkman Polytron PT-10, (setting number 6 for 20 seconds) and centrifuged for ten minutes at 20,000 x g (Sorvall RC-2), 4°C. The supernatant was discarded, and the pellet was resuspended and centrifuged as before. The pellet was resuspended in 20 ml Tris-HCI buffer containing two International Units/ml of adenosine deaminase (Sigma Type III from calf intestinal mucosa), incubated at 37°C for 30 minutes, then subsequently at 0°C for ten minutes. The homogenate was again centrifuged, and the final pellet was resuspended in ice-cold 0.05 M Tris-HCI buffer pH 7.7 to a concentration of 20 mg/ml original wet tissue weight and used immediately.
Tissue homogenate (10 mg/ml) was incubated in 0.05 M Tris-HCI buffer pH 7.7 containing 1.0 nM [^3H]-N^6-cyclohexyladenosine (^3H]-CHA) with or without test agents in triplicate for one hour at 25°C. Incubation volume was 2 ml. Unbound [^3H]-CHA was separated by rapid filtration under reduced pressure through Whatman glass fiber (GF/B) filters. The filters were rinsed three times with 5 ml of ice cold 0.05 M Tris-HCI buffer pH 7.7. The radio-labele ligand retained on the filter was measured by liquid scintillation spectrophotometry after shaking the filters for one hour or longer on a mechanical shaker in 10 ml of Beckman Ready-Solv HP scintillation cocktail.
Nonspecific binding was defined as the binding which occurred in the presence of 1 mM theophylline. The concentration of test agent which inhibited 50% of the specific binding (IC50) was determined by nonlinear computer curve fit. The Scatchard plot was calculated by linear regression of the line obtained by plotting the amount of radioligand bound (pmoles/gram of tissue) versus
• bound radioligand • free radioligand Since the amount of radioligand bound was a small fraction of the total amount added, free radioligand was defined as the concentration (nM) of radioligand added to the incubation mixture. The Hill coefficient was calculated by linear regression of the line obtained by plotting the log of the bound radioligand vs the log of the • bound radioligand • Bmax - bound radioligand • The maximal number of binding sites (Bmax) was calculated from the Scatchard plot.

A further assay concerns the target T2, adenosine A2 receptor (Rattus norvegicus, UniProt P30543).
T2 construct: Brains were thawed and then kept on ice while the striata were dissected out; tissue Pel-Freez (Rogers, Arkansas); host or cells: rat striatum (membranes)
The assay is described as follows: Adenosine Receptor Binding - A2 Receptor Affinity (RBA2), [3H]NECA displacement in striatal membranes. The following applies: 4 nM [3H]NECA, 50 nM N6-cyclopentyladenosine, 60 minutes at 25°C, read-out: RBA-2 (IC50, A2 receptor affinity). How it is done: Brains from 200-500 g mixed sex Sprague-Dawley rats were purchased from Pel-Freez (Rogers, Arkansas). Fresh brains from male Long-Evans hooded rats (Blue Spruce Farms, Altamont, NY) gave essentially identical results. Brains were thawed and then kept on ice while the striata were dissected out. Striata were disrupted in 10 vol of ice-cold 50 mM Tris·HCl (pH 7.7 at 25°C, pH 8.26 at 5°C) (Tris) for 30 seconds in a Polytron PT―10 (Brinkmann) at setting 5. The suspension was centrifuged at 50,000 xg for ten minutes, the supernatant discarded, the pellet resuspended in 10 vol ice-cold Tris as above, recentrifuged, resuspended at 1 g/5 ml, and stored in plastic vials at -70°C (stable for at least six months). When needed, tissue was thawed at room temperature, disrupted in a Polytron, and kept on ice until used.
All incubations were for 60 minutes at 25°C in 12 x 75 mm glass tubes containing 1 ml Tris with 5 mg original tissue weight of rat weight of rat striatal membranes, 4 nM [^3H]-N-ethyl adenosine-5'-carboxamide ([^3H]NECA), 50 nM N^s-cyclopentyladenosine (to eliminate A1 receptor binding), 10 mM MgCI2, 0.1 units/ml of adenosine deaminase and 1% dimethylsulfoxide. N^6-Cyclopentyladenosine was dissolved at 10 mM in 0.02 N HCI and diluted in Tris. Stock solutions and dilutions of N^6-cyclopentyladenosine could be stored at -20°C for several months. Test compounds were dissolved at 10 mM in dimethylsulfoxide on the same day as the experiment, and diluted in dimethylsulfoxide to 100x the final incubation concentration. Control incubations received an equal volume (10 µl) of dimethylsulfoxide; the resulting concentration of dimethylsulfoxide had no effect on binding. [^3H]NECA was diluted to 40 nM in Tris. The membrane suspension (5 mg/0.79 ml) contained sufficient MgC12 and adenosine deaminase to give 10 mM and 0.1 units/ml, respectively, final concentration in the incubation. […] After all additions, the rack of tubes was vortexed, and the tubes were then incubated for 60 min at 25°C in a shaking water bath. The rack of tubes was vortexed an additional time halfway through the incubation.
Incubations were terminated by filtration through 2.4 cm GF/B filters under reduced pressure. Each tube was filtered as follows: the contents of the tube were poured onto the filter, 4 ml of ice-cold Tris were added to the tube and the contents poured onto the filter, and the filter was washed twice with 4 ml of ice-cold Tris. The filtration was complete in about 12 seconds. Filters were put in scintillation vials, 8 ml of Formula 947 scintillation fluid added, and the vials left overnight, shaken, and counted in a liquid scintillation counter at 40% efficiency.
Nonspecific binding was defined as binding in the presence of […] N^6-cyclopentyladenosine, and specific binding was defined as total binding minus nonspecific binding. The IC50 was calculated by weighted nonlinear least squares curve-fitting to the mass action equation. [formula] • where Y is cpm bound • T is cpm total binding without drug • S is cpm specific binding without drug • D is the concentration of drug • and K is the IC50 of the drug Weighting factors were calculated under the assumption that the standard deviation was proportional to the predicted value of Y. Nonspecific binding was treated as a very large (infinite) concentration of drug in the computer analysis.

T2 sequence (P30543 whole entry): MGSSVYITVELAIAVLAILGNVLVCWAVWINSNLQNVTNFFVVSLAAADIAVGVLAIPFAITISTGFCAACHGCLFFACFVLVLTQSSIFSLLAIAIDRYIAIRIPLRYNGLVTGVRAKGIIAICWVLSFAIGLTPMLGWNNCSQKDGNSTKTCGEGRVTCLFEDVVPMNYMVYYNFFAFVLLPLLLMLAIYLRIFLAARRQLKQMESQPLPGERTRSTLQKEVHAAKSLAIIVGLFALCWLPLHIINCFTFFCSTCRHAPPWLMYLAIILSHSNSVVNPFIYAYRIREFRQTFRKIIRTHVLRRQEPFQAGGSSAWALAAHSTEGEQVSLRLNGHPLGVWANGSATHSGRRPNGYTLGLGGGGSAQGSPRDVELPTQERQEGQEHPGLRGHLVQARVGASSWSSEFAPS

Turning to `Cc1ccc(C(C)C)c2c1CC(Nc1ncnc3c1ncn3[C@@H]1O[C@H](CO)[C@@H](O)[C@H]1O)CO2` (some centres unmarked) [Example 12, N^6-[8-lsopropyl-5-methyl-3-chromanylamino]adenosine], the IC50 stood at 188 nM at adenosine A1 receptor and 1540 nM on adenosine A2 receptor.
